Each structure is given as a SMILES string. Structures can show the parent of a compound that is named as a salt.

21 compounds from patent US7132536B2, “Triaza- and tetraaza-anthracenedione derivatives, their preparation and their use as pharmaceuticals” (Sanofi-aventis Deutschland GmbH, priority 2003, dated 2006) can be followed below.

The assay deals with eNOS promoter. Kind of assay: Activation of eNOS transcription (eNOS promoter-luciferase reporter gene assay). Conditions: human endothelial cell line stably transfected with eNOS promoter-firefly luciferase construct; 18 h incubation; EC50 determined graphically; read-out: EC50 of transcription induction ratio (TIR). Type of assay: cell-based. Here is the method: Activation of eNOS transcription was measured as described in detail by Li et al., “Activation of protein kinase C alpha and/or epsilon enhances transcription of the human endothelial nitric oxide synthase gene”, Mol. Pharmacol. 53 (1998) 630. Briefly, a 3.5 kB long fragment 5′ of the starting codon of the eNOS gene was cloned, sequenced and cloned in firefly luciferase expression plasmids to monitor activation of the eNOS promoter by reporter gene activity. A human endothelial cell line stable transfected and expressing this promoter-reporter construct was used for compound testing. Cells were incubated for 18 h with the compounds.
All compounds were dissolved in sterile dimethylsulfoxide (DMSO). A final concentration of 0.5% DMSO in complete medium was allowed. Induction of reporter gene expression in these cells was measured using a standard luciferase assay system (Promega, Cat. No. E150) according to the manufacturer's instructions. Luciferase induction in cells incubated with compounds were compared to those incubated with solvent alone. The ratio of both activities (transcription induction ratio, TIR) was plotted as a function of compound concentration. Typically, TIR values started at low concentrations at a ratio of 1, indicating no compound effect, and extended up to a maximum TIR value TIR(max) which indicates the increase of the eNOS transcription. EC50 values of transcription induction ratios as a function of compound concentration were determined graphically.
A general note: In a reporter assay the amount or activity of a reporter protein is the signal.
As for `CC(C)[C@H]1C(=O)N(CCCCc2ccccc2)CC2N(CCCn3ccnc3)c3ccc([N+](=O)[O-])cc3C(=O)N21` (stereo partly drawn) [Example 1, (4S)-9-(3-(Imidazol-1-yl)propyl)-4-isopropyl-6-nitro-2-(4-phenylbutyl)-1,2,9,9a-tetrahydro-2,4a,9-triaza-anthracene-3,10(4H)-dione trifluoroacetic acid salt], the EC50 turned out to be 2.2 µM. As for `CCC1C(=O)N(Cc2ccc(C(C)(C)C)cc2)CC2N(CCc3ccncc3)c3ccc([N+](=O)[O-])cc3C(=O)N12` (stereo not drawn) [Example 40, 2-(4-tert-Butylbenzyl)-4-ethyl-6-nitro-9-(2-(pyridin-4-yl)ethyl)-1,2,9,9a-tetrahydro-2,4a,9-triaza-anthracene-3,10(4H)-dione trifluoroacetic acid salt], the EC50 was 0.22 µM. Regarding `O=C1[C@H](Cc2cccc(F)c2)N2C(=O)c3cc([N+](=O)[O-])ccc3N(CCCn3ccnc3)C2CN1CCCCc1ccccc1` (stereo partly drawn) [Example 4, (4S)-4-(3-Fluorobenzyl)-9-(3-(imidazol-1-yl)propyl)-6-nitro-2-(4-phenylbutyl)-1,2,9,9a-tetrahydro-2,4a,9-triaza-anthracene-3,10(4H)-dione trifluoroacetic acid salt], the EC50 was found to be 8 µM.

In the case of `CC[C@H]1C(=O)N(Cc2ccc(C(C)(C)C)cc2)CC2N(CCCn3ccnc3)c3ccc([N+](=O)[O-])cc3C(=O)N21` (stereo partly drawn) [Example 38, (4S)-2-(4-tert-Butylbenzyl)-4-ethyl-9-(3-(imidazol-1-yl)propyl)-6-nitro-1,2,9,9a-tetrahydro-2,4a,9-triaza-anthracene-3,10(4H)-dione trifluoroacetic acid salt], the EC50 came out at 0.4 µM.

Consider `CC(C)C1C(=O)N(Cc2ccc(C(C)(C)C)cc2)CC2N(CCCn3ccnc3)c3cccnc3C(=O)N12` (stereo not drawn) [Example 36, 6-(4-tert-Butylbenzyl)-10-(3-(imidazol-1-yl)propyl)-8-isopropyl-5,6,10,10a-tetrahydro-1,6,8a,10-tetraaza-anthracene-7,9(8H)-dione trifluoroacetic acid salt], for which the EC50 was 100 µM.

As for `CC(C)[C@H]1C(=O)N(Cc2cccc3ccccc23)CC2N(CCCn3ccnc3)c3ccc([N+](=O)[O-])cc3C(=O)N21` (stereo partly drawn) [Example 3, (4S)-9-(3-(Imidazol-1-yl)propyl)-4-isopropyl-2-(naphth-1-ylmethyl)-6-nitro-1,2,9,9a-tetrahydro-2,4a,9-triaza-anthracene-3,10(4H)-dione trifluoroacetic acid salt], the EC50 is 20 µM. For `CC(C)[C@H]1C(=O)N(Cc2ccc(C(F)(F)F)cc2)CC2N(CCCn3ccnc3)c3ccc(C(F)(F)F)cc3C(=O)N21` (stereo partly drawn) [Example 11, (4S)-9-(3-(Imidazol-1-yl)propyl)-4-isopropyl-6-trifluoromethyl-2-(4-trifluoromethyl-benzyl)-1,2,9,9a-tetrahydro-2,4a,9-triaza-anthracene-3,10(4H)-dione trifluoroacetic acid salt], the EC50 was found to be 20 µM. Take `CC(C)[C@H]1C(=O)N(CCCCc2ccccc2)CC2N(CCc3ccncc3)c3ccc([N+](=O)[O-])cc3C(=O)N21` (stereo partly drawn) [Example 7, (4S)-4-Isopropyl-6-nitro-2-(4-phenylbutyl)-9-(2-(pyridin-4-yl)ethyl)-1,2,9,9a-tetrahydro-2,4a,9-triaza-anthracene-3,10(4H)-dione trifluoroacetic acid salt]: the EC50 was 20 µM. For `O=C1[C@H](C2CCCCC2)N2C(=O)c3cc([N+](=O)[O-])ccc3N(CCCn3ccnc3)C2CN1CCCCc1ccccc1` (stereo partly drawn) [Example 5, (4S)-4-Cyclohexyl-9-(3-(imidazol-1-yl)propyl)-6-nitro-2-(4-phenylbutyl)-1,2,9,9a-tetrahydro-2,4a,9-triaza-anthracene-3,10(4H)-dione trifluoroacetic acid salt], the EC50 was 2.8 µM.

Consider `COc1ccc(C[C@H]2C(=O)N(CCCCc3ccccc3)CC3N(CCCn4ccnc4)c4ccc([N+](=O)[O-])cc4C(=O)N32)cc1OC` (stereo partly drawn) [Example 6, (4S)-4-(3,4-Dimethoxybenzyl)-9-(3-(imidazol-1-yl)propyl)-6-nitro-2-(4-phenylbutyl)-1,2,9,9a-tetrahydro-2,4a,9-triaza-anthracene-3,10(4H)-dione trifluoroacetic acid salt], for which the EC50 is 24 µM. In the case of `CC(C)[C@H]1C(=O)N(Cc2ccc(C(C)(C)C)cc2)CC2N(CCCn3ccnc3)c3ccc([N+](=O)[O-])cc3C(=O)N21` (stereo partly drawn) [Example 2, (4S)-2-(4-tert-Butylbenzyl)-9-(3-(imidazol-1-yl)propyl)-4-isopropyl-6-nitro-1,2,9,9a-tetrahydro-2,4a,9-triaza-anthracene-3,10(4H)-dione trifluoroacetic acid salt], the EC50 was 1.2 µM. Take `O=C1[C@H](Cc2c[nH]cn2)N2C(=O)c3cc([N+](=O)[O-])ccc3N(Cc3ccc(OC(F)(F)F)cc3)C2CN1CCCCc1ccccc1` (stereo partly drawn) [Example 9, (4S)-4-(1H-Imidazol-4-ylmethyl)-6-nitro-2-(4-phenylbutyl)-9-(4-trifluoromethoxy-benzyl)-1,2,9,9a-tetrahydro-2,4a,9-triaza-anthracene-3,10(4H)-dione trifluoroacetic acid salt]: the EC50 worked out at 8.4 µM. With `O=C1[C@H](Cc2c[nH]cn2)N2C(=O)c3cc([N+](=O)[O-])ccc3N(CCCCc3ccccc3)C2CN1CCCCc1ccccc1` (stereo partly drawn) [Example 8, (4S)-4-(1H—Imidazol-4-ylmethyl)-6-nitro-2,9-bis(4-phenylbutyl)-1,2,9,9a-tetrahydro-2,4a,9-triaza-anthracene-3,10(4H)-dione trifluoroacetic acid salt] the figure was 6 µM; with `CC(C)[C@H]1C(=O)N(CCCCc2ccccc2)CC2N(CCCn3ccnc3)c3ccc(C(F)(F)F)cc3C(=O)N21` (stereo partly drawn) [Example 10, (4S)-9-(3-(Imidazol-1-yl)propyl)-4-isopropyl-2-(4-phenylbutyl)-6-trifluoromethyl-1,2,9,9a-tetrahydro-2,4a,9-triaza-anthracene-3,10(4H)-dione trifluoroacetic acid salt], 12 µM; with `O=C1[C@H](Cc2cccc(F)c2)N2C(=O)c3cc(C(F)(F)F)ccc3N(CCCn3ccnc3)C2CN1CCCCc1ccccc1` (stereo partly drawn) [Example 16, (4S)-4-(3-Fluorobenzyl)-9-(3-(imidazol-1-yl)propyl)-2-(4-phenylbutyl)-6-trifluoromethyl-1,2,9,9a-tetrahydro-2,4a,9-triaza-anthracene-3,10(4H)-dione trifluoroacetic acid salt], 8 µM. For `COc1ccc(CN2CC3N(CCCn4ccnc4)c4ccc(C(F)(F)F)cc4C(=O)N3[C@@H](C(C)C)C2=O)c(OC)c1` (stereo partly drawn) [Example 14, (4S)-2-(2,4-Dimethoxybenzyl)-9-(3-(imidazol-1-yl)propyl)-4-isopropyl-6-trifluoromethyl-1,2,9,9a-tetrahydro-2,4a,9-triaza-anthracene-3,10(4H)-dione trifluoroacetic acid salt] the value was 12 µM; for `O=C1[C@H](C2CCCCC2)N2C(=O)c3cc(C(F)(F)F)ccc3N(CCCn3ccnc3)C2CN1CCCCc1ccccc1` (stereo partly drawn) [Example 13, (4S)-4-Cyclohexyl-9-(3-(imidazol-1-yl)propyl)-2-(4-phenylbutyl)-6-trifluoromethyl-1,2,9,9a-tetrahydro-2,4a,9-triaza-anthracene-3,10(4H)-dione trifluoroacetic acid salt], 7 µM; for `CC(C)[C@H]1C(=O)N(Cc2ccc(C(C)(C)C)cc2)CC2N(CCCn3ccnc3)c3ccc(C(F)(F)F)cc3C(=O)N21` (stereo partly drawn) [Example 15, (4S)-2-(4-tert-Butylbenzyl)-9-(3-(imidazol-1-yl)propyl)-4-isopropyl-6-trifluoromethyl-1,2,9,9a-tetrahydro-2,4a,9-triaza-anthracene-3,10(4H)-dione trifluoroacetic acid salt], 4 µM. As to `Cc1ccc2c(n1)C(=O)N1C(C(C)C)C(=O)N(Cc3ccc(C(C)(C)C)cc3)CC1N2CCCn1ccnc1` (stereo not drawn) [Example 37, 6-(4-tert-Butylbenzyl)-10-(3-(imidazol-1-yl)propyl)-8-isopropyl-2-methyl-5,6,10,10a-tetrahydro-1,6,8a,10-tetraaza-anthracene-7,9(8H)-dione trifluoroacetic acid salt], the EC50 was 100 µM. Take `CC(C)[C@H]1C(=O)N(Cc2ccc(C(F)(F)F)cc2)CC2N(CCc3ccncc3)c3ccc(C(F)(F)F)cc3C(=O)N21` (stereo partly drawn) [Example 12, (4S)-4-Isopropyl-9-(2-(pyridin-4-yl)ethyl)-6-trifluoromethyl-2-(4-trifluoromethylbenzyl)-1,2,9,9a-tetrahydro-2,4a,9-triaza-anthracene-3,10(4H)-dione trifluoroacetic acid salt]: the EC50 was determined as 20 µM.

Take `CC(C)C1C(=O)N(Cc2ccc(C(C)(C)C)cc2)CC2N(CCCn3ccnc3)c3ccc([N+](=O)[O-])cc3C(=O)N12` (stereo not drawn) [Example 39, 2-(4-tert-Butylbenzyl)-9-(3-(imidazol-1-yl)propyl)-4-isopropyl-6-nitro-1,2,9,9a-tetrahydro-2,4a,9-triaza-anthracene-3,10(4H)-dione trifluoroacetic acid salt]: the EC50 turned out to be 0.29 µM.
